The results in this text go back to ChEMBL document CHEMBL4402557, “Nidufexor (LMB763), a Novel FXR Modulator for the Treatment of Nonalcoholic Steatohepatitis” (J Med Chem, 2020).

Data set [1] in a line: Clearance in Wistar rat at 3 mg/kg, iv. It counts as ADME, organism-based. The settings on record: in vivo.
The nature of data set [2]: Oral bioavailability in Wistar rat at 10 mg/kg in presence of 0.5% CMC/0.5% Tween 80. The settings on record: in vivo. The class given is ADME, organism-based.
A short description of data set [3]: Oral bioavailability in Wistar rat at 100 mg/kg in presence of TRIS salt. It counts as ADME, organism-based. The settings on record: in vivo.
Data set [4] is described as follows: Oral bioavailability in Wistar rat at 3 mg/kg. The class given is ADME, organism-based. The settings on record: in vivo.
Data set [5] can be described thus: AUC in Wistar rat plasma at 10 mg/kg, po. It counts as ADME, organism-based.
Data set [6] in a line: AUC in Wistar rat brain at 10 mg/kg, po. The class given is ADME, organism-based.
The target in the next data set is T1, Androgen receptor (Homo sapiens, UniProt P10275).
T1 sequence (P10275 whole entry): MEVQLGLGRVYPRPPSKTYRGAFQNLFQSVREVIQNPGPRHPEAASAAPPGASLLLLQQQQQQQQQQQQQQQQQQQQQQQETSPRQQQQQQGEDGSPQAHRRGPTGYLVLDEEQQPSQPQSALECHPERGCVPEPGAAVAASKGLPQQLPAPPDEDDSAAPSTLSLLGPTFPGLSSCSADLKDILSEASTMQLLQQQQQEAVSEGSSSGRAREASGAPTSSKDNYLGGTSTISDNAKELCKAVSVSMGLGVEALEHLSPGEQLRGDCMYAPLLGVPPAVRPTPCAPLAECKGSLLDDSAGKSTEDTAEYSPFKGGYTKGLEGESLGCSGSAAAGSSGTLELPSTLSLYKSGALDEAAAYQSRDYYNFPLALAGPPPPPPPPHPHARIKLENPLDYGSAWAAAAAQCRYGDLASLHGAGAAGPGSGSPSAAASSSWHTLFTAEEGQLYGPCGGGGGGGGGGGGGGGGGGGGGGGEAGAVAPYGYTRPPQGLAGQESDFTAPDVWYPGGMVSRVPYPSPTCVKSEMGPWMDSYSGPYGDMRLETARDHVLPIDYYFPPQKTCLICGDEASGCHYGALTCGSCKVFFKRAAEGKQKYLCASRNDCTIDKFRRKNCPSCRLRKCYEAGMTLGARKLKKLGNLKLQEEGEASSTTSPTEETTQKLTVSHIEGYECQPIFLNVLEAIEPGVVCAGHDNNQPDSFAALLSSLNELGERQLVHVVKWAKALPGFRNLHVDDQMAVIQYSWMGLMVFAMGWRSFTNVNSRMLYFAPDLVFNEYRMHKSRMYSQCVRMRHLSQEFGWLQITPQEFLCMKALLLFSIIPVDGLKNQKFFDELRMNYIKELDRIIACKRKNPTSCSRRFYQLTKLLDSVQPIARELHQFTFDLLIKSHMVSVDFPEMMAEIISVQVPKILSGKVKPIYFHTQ
The experiment in a line: Agonist activity at androgen receptor (unknown origin) incubated for 2 hrs by TR-FRET assay.

For data set [7], the target named is T2, Retinoic acid receptor RXR-alpha (Homo sapiens, UniProt P19793).
T2 sequence (P19793 whole entry): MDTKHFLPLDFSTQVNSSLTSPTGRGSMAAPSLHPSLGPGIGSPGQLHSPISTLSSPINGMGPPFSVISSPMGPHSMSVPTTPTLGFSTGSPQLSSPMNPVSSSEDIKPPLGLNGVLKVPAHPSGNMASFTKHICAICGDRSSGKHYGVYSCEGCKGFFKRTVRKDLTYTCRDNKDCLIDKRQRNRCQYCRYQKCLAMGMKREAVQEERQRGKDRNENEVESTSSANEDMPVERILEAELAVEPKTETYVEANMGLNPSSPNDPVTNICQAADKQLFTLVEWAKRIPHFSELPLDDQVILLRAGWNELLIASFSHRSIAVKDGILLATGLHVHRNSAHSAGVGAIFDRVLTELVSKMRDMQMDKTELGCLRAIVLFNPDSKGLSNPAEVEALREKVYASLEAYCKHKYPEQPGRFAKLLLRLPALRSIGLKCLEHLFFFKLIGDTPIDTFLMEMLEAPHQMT
Briefly: Agonist activity at GAL4-fused RXR LBD (unknown origin) expressed in HEK293T cells incubated for 24 by BrightGlo reagent based assay. The class given is cell-based.

Data set [8] concerns Mus musculus. Briefly: Anti Steato-hepatitic activity in STZ/HFD induced oral dosed C57BL/6J mouse STAM model assessed as reduction in microvesicular fat deposition administered via oral gavage once daily for 3 weeks and measured on 9 week by H and E staining based assay. The class given is functional, organism-based.
Data set [9] deals with Mus musculus. The experiment in a line: Anti Steato-hepatitic activity in STZ/HFD induced C57BL/6J mouse STAM model assessed as reduction in fibrosis at 3 to 30 mg/kg, po administered via oral gavage once daily for 3 weeks and measured on 9 week by Picro-Sirius Red staining based assay. It counts as functional, organism-based.
The species named for data set [10] is Mus musculus. Briefly: Anti Steato-hepatitic activity in C57BL/6J mouse STAM model assessed as change in OSTb gene level in liver. It counts as functional, organism-based.
For data set [11], the species on record is Mus musculus. The experiment in a line: Anti Steato-hepatitic activity in C57BL/6J mouse STAM model assessed as change in Map3k13 gene level in liver. It counts as functional, organism-based.
Data set [12] can be described thus: Half life in rabbit at 5 mg/kg, iv. It counts as ADME, organism-based, Oryctolagus cuniculus. As to conditions: in vivo.
For another data set, the target named is T3, Progesterone receptor (Homo sapiens, UniProt P06401).
T3 sequence (P06401 whole entry): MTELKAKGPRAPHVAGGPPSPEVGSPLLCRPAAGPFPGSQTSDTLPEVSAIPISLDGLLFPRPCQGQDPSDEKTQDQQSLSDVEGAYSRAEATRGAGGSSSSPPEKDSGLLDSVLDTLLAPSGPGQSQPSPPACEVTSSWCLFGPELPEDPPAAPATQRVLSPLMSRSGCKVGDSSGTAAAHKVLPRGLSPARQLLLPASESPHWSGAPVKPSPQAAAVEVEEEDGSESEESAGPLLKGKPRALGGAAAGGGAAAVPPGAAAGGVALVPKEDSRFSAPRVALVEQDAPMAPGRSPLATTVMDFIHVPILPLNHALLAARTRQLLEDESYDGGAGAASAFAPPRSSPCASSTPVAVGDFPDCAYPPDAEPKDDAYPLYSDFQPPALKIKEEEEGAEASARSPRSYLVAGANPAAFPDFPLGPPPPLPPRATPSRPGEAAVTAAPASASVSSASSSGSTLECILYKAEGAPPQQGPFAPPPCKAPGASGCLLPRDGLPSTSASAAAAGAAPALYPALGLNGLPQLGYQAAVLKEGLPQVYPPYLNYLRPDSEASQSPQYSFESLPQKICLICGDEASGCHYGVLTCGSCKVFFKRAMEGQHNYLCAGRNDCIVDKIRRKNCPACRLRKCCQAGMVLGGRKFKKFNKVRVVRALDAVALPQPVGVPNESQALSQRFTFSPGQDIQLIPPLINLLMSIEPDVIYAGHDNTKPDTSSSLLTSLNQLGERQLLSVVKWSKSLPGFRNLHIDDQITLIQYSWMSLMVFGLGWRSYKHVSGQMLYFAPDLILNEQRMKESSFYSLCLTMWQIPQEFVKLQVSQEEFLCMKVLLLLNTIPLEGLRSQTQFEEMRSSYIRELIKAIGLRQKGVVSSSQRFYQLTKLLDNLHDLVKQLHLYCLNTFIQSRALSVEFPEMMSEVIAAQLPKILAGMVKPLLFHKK
Briefly: Agonist activity at Progesterone receptor (unknown origin) incubated for 2 hrs by TR-FRET assay. Background: In TR-FRET formats the signal depends on donor and acceptor labels being close together.

The source made the active and inactive calls. The calls are words filed in the database; no cut-off is given here. Where only a bound is given, the exact number is not on record here.

One may read the clearance as the volume of plasma or blood freed of the substance per unit of time. A low value points to a low capacity for elimination. By bioavailability is commonly meant the share of a dose that reaches the circulation, judged against a reference dose that is usually intravenous. Usually AUC stands for the area under the concentration-time curve, a measure of exposure. The low end stands for low exposure, the high end for high exposure. Usually EC50 stands for the concentration at which the effect is half-maximal. As usually defined, the half-life is how long it takes for the measured level to halve. A higher half-life goes with slow decline. Take `Cn1nc(C(=O)N(Cc2ccccc2)Cc2ccc(C(=O)O)cc2)c2c1-c1cc(Cl)ccc1OC2` [NIDUFEXOR]: the clearance in data set [1] stood at 7 mL/min/kg. The bioavailability in [2] came out at 10%; in data set [3] it was 82%; in data set [4], 63%. For the same molecule, the figures for the AUC in data set [5] and in data set [6] were 24.5 µM·h and 1.11 µM·h, respectively. Also, the EC50 on Androgen receptor was over 30 µM; in [7] it was over 10 µM; on Progesterone receptor, over 30 µM. In addition, in the data set with Mus musculus [8], the Activity result was “Dose-dependent effect”. Moreover, the result with Mus musculus [9], in the data set listed under Mus musculus [10] and in the data set filed under Mus musculus [11] was Active. This molecule also gave a half-life in [12] of 4.4 h.
